Measurements published in patent US12171755B2, “PAPD5 inhibitors and methods of use thereof” (Children's Medical Center Corporation, priority 2017, dated 2024).

Molecular target: T1, PAPD5 (Homo sapiens, UniProt Q8NDF8)
T1 construct: made in house
Assay: High-throughput luminescence (KinaseGlo) RNA polyadenylation assay, ATP utilization by recombinant PAPD5
Type: biochemical
Conditions: Table 4 (entries of Table 5), ratio of luminescence with inhibitor to DMSO; for Fold-change determined at compound concentration 33 μM: 33 μM compound; for Fold-change determined at compound concentration 100 μM: 100 μM compound, higher = higher inhibition
Outline: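 Values are ratios of inhibitor to DMSO luminescence, so larger numbers mean less ATP consumed. Screening was run in duplicate with a 2 h room-temperature reaction of recombinant PAPD5, ATP and oligo RNA substrate plus compound. Residual ATP was detected after a 10 min KinaseGlo step.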

T1 sequence (Q8NDF8 68-698 isoform Q8NDF8-5): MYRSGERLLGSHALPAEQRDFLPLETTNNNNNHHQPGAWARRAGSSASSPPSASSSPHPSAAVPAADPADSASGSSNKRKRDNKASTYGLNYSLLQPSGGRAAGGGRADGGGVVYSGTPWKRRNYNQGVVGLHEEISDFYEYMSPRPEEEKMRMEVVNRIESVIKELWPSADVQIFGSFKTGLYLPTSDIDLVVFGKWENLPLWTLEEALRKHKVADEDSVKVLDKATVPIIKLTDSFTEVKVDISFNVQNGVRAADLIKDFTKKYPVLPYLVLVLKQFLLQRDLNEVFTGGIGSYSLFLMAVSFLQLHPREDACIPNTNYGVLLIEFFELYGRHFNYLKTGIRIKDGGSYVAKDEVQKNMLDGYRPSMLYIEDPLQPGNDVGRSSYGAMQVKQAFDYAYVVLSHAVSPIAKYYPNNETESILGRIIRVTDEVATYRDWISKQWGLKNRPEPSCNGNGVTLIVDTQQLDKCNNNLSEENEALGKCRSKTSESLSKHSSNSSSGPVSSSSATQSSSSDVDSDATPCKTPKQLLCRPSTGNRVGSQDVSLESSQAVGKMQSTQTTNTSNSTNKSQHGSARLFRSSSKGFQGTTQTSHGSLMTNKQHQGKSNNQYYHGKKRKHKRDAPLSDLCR

Structure (SMILES) | Fold-change determined at compound concentration 33 μM | Fold-change determined at compound concentration 100 μM | Fold-change determined at compound concentration 10 μM (10 μM compound)
Cc1ccc(C(=O)Nc2c(-c3ccccc3)nc3ccccn23)cc1C [Entry 189, 3,4-dimethyl-N-(2-phenylimidazo[1,2-a]pyridin-3-yl)benzamide] | 1.206 | 1.311 | –
Cc1ccc(C(=O)Nc2c(-c3ccccc3)nc3ccccn23)cc1 [Entry 190, 4-methyl-N-(2-phenylimidazo[1,2-a]pyridin-3-yl)benzamide] | 1.309 | 1.482 | 1.214
O=C(Nc1c(-c2ccccc2)nc2ccccn12)c1ccc(Br)cc1 [Entry 191, 4-bromo-N-(2-phenylimidazo[1,2-a]pyridin-3-yl)benzamide] | 1.225 | 1.296 | –
O=C(O)c1cccc(Nc2c(-c3cc(Br)ccc3O)nc3cnccn23)c1 [Entry 193, 3-{[2-(5-bromo-2-hydroxyphenyl)imidazo[1,2-a]pyrazin-3-yl]amino}benzoic acid] | 1.134 | 1.446 | –
COc1ccc(C2CC(=O)N3CN(C4CCCCC4)CSC3=C2C#N)cc1 (stereo not drawn) [Entry 194, 3-cyclohexyl-8-(4-methoxyphenyl)-6-oxo-3,4,7,8-tetrahydro-2H,6H-pyrido[2,1-b][1,3,5]thiadiazine-9-carbonitrile] | 1.323 | 1.613 | –
CC(C)c1ccc(C2CC(=O)N3CN(C4CCCCC4)CSC3=C2C#N)cc1 (stereo not drawn) [Entry 195, 3-cyclohexyl-6-oxo-8-(4-propan-2-ylphenyl)-2,4,7,8-tetrahydropyrido[2,1-b][1,3,5]thiadiazine-9-carbonitrile] | 1.072 | 1.228 | –
N#CC1=C2SCN(C3CCCCC3)CN2C(=O)CC1c1ccc(Br)cc1 (stereo not drawn) [Entry 196, 8-(4-bromophenyl)-3-cyclohexyl-6-oxo-3,4,7,8-tetrahydro-2H,6H-pyrido[2,1-b][1,3,5]thiadiazine-9-carbonitrile] | 1.09 | 1.326 | –
COc1cc(C2CC(=O)Nc3c2sc(C(=O)O)c3-c2cccc(F)c2)ccc1OCC(N)=O (stereo not drawn) [Entry 197, 7-[4-(2-amino-2-oxoethoxy)-3-methoxyphenyl]-3-(3-fluorophenyl)-5-oxo-4,5,6,7-tetrahydrothieno[3,2-b]pyridine-2-carboxylic acid] | 1.142 | 1.412 | –
CCOc1cc(C2CC(=O)Nc3c2sc(C(=O)O)c3-c2cccc(F)c2)ccc1OCC(N)=O (stereo not drawn) [Entry 198, 7-[4-(2-amino-2-oxoethoxy)-3-ethoxyphenyl]-3-(3-fluorophenyl)-5-oxo-4,5,6,7-tetrahydrothieno[3,2-b]pyridine-2-carboxylic acid] | 1.084 | 1.264 | –
COC(=O)c1c(NC(=O)c2ccccc2C(=O)O)sc2c1CCCC2 [Entry 199, 2-({[3-(methoxycarbonyl)-4,5,6,7-tetrahydro-1-benzothien-2-yl]amino}carbonyl)benzoic acid] | 1.199 | 1.607 | –
CCOC(=O)c1c(NC(=O)CSc2n[nH]c3nc(=O)cc(C)n23)sc2c1CCCCC2 [Entry 200, ethyl 2-[[2-[(5-methyl-7-oxo-1H-[1,2,4]triazolo[4,3-a]pyrimidin-3-yl)sulfanyl]acetyl]amino]-5,6,7,8-tetrahydro-4H-cyclohepta[b]thiophene-3-carboxylate] | 1.038 | 1.414 | –
CCS(=O)(=O)c1nc2ccc(NS(=O)(=O)c3ccc(F)c(F)c3)cc2s1 [Entry 206, N-(2-(ethylsulfonyl)benzo[d]thiazol-6-yl)-3,4-difluorobenzenesulfonamide] | 1.08 | 1.225 | –
COc1ccc(OC)c2sc(N(CCCN(C)C)C(=O)c3ccco3)nc12 [Entry 207, N-(4,7-dimethoxy-1,3-benzothiazol-2-yl)-N-[3-(dimethylamino)propyl]furan-2-carboxamide] | 1.118 | 1.2 | –
Cc1ccc(-c2n[nH]c(=O)c3c2CCCC3)cc1S(=O)(=O)Nc1ccc(S(N)(=O)=O)cc1 [Entry 208, N-[4-(aminosulfonyl)phenyl]-2-methyl-5-(4-oxo-3,4,5,6,7,8-hexahydrophthalazin-1-yl)benzenesulfonamide] | 1.211 | 1.492 | –
O=C(Cn1nc(Cc2ccncc2)c2ccccc2c1=O)N1CC=C(c2ccccc2)CC1 [Entry 209, 2-[2-oxo-2-(4-phenyl-3,6-dihydropyridin-1(2H)-yl)ethyl]-4-(pyridin-4-ylmethyl)phthalazin-1(2H)-one] | 1.093 | 1.274 | –
O=C(O)c1csc2nc[nH]c(=O)c12 [Entry 210, 4-Oxo-3,4-dihydrothieno[2,3-d]pyrimidine-5-carboxylic acid] | 1.136 | 1.311 | –
CCOC(=O)Cn1cnc2sc3c(c2c1=O)CCCC3 [Entry 211, Ethyl (4-oxo-5,6,7,8-tetrahydro[1]benzothieno[2,3-d]pyrimidin-3(4H)-yl)acetate] | 1.065 | 1.217 | –
O=C1c2cnccc2CN1c1cc(F)ccc1F [Entry 212, 2-(2,5-difluorophenyl)-1H-pyrrolo[3,4-c]pyridin-3-one] | 1.077 | 1.799 | –
O=C(O)c1cccn2c(=O)c3c4c(sc3nc12)CCCC4 [Entry 215, 12-oxo-1,2,3,4-tetrahydro-12H-[1]benzothieno[2,3-d]pyrido[1,2-a]pyrimidine-7-carboxylic acid] | 1.074 | 2.037 | –
CCOc1ccc(-c2noc(Cn3cnc4c(cnn4-c4ccccc4)c3=O)n2)cc1OC [Entry 217, 5-[[3-(4-ethoxy-3-methoxyphenyl)-1,2,4-oxadiazol-5-yl]methyl]-1-phenylpyrazolo[3,4-d]pyrimidin-4-one] | 1.114 | 1.245 | –
CC(C)Cn1c(=O)c(-c2ccc(C(=O)Nc3ccc4c(c3)OCCO4)cc2)nc2ccccc21 [Entry 219, N-(2,3-dihydro-1,4-benzodioxin-6-yl)-4-[4-(2-methylpropyl)-3-oxoquinoxalin-2-yl]benzamide] | 1.086 | 1.339 | –

Results, then the molecule that gave them:

Fold-change determined at compound concentration 33 μM | Fold-change determined at compound concentration 100 μM | Fold-change determined at compound concentration 10 μM (10 μM compound) | Structure (SMILES)
1.106 | 1.419 | – | O=C(O)c1ccc(Nc2c(-c3cc(Br)ccc3O)nc3cnccn23)cc1 [Entry 192, 4-{[2-(5-bromo-2-hydroxyphenyl)imidazo[1,2-a]pyrazin-3-yl]amino}benzoic acid]
1.164 | 1.361 | – | O=C(NC1CC1)c1ccc(Cn2c(SCc3ccccc3Cl)nc3ccncc32)cc1 [Entry 202, 4-({2-[(2-chlorobenzyl)thio]-3H-imidazo[4,5-c]pyridin-3-yl]methyl)-N-cyclopropylbenzamide]
1.106 | 1.31 | – | O=C(NCCN1CCCC1)c1ccc(Cn2c(SCc3ccc(Cl)cc3)nc3ccncc32)cc1 [Entry 203, 4-({2-[(4-chlorobenzyl)thio]-3H-imidazo[4,5-c]pyridin-3-yl}methyl)-N-(2-pyrrolidin-1-ylethyl)benzamide]
1.073 | 1.229 | – | Cc1nn(-c2ccc(Cl)cc2)c2sc(C(=O)O)cc12 [Entry 204, 1-(4-Chloro-phenyl)-3-methyl-1H-thieno[2,3-c]pyrazole-5-carboxylic acid]
1.232 | 2.055 | – | Cn1nc(-c2ccc(Cl)cc2)c2cc(C(=O)O)sc21 [Entry 205, 3-(4-chlorophenyl)-1-methylthieno[2,3-c]pyrazole-5-carboxylic acid]
1.199 | 1.579 | – | Cc1ccc2c(c1)n(Cc1ccc(Cl)cc1)c(=O)c1nc(C(=O)O)nn12 [Entry 213, 5-(4-chlorobenzyl)-7-methyl-4-oxo-4,5-dihydro[1,2,4]triazolo[1,5-a]quinoxaline-2-carboxylic acid]
1.118 | 1.213 | – | Cc1nn(CC(=O)O)c(=O)c2cc3cc(F)ccc3n12 [Entry 214, 2-(8-fluoro-4-methyl-1-oxo-[1,2,4]triazino[4,5-a]indol-2-yl)acetic acid]
1.103 | 1.239 | – | Cc1ccc(S(=O)(=O)NCc2ccc(-c3nn4cnnc4s3)cc2)cc1 [Entry 216, 4-methyl-N-[[4-([1,2,4]triazolo[3,4-b][1,3,4]thiadiazol-6-yl)phenyl]methyl]benzenesulfonamide]
1.096 | 1.304 | – | COc1cccc(NC(=O)c2ccc3c(=O)n4nc(Nc5ccccc5OC)sc4nc3c2)c1 [Entry 218, 2-(2-methoxyanilino)-N-(3-methoxyphenyl)-5-oxo-[1,3,4]thiadiazolo[2,3-b]quinazoline-8-carboxamide]
1.068 | 1.277 | – | Cc1ccc2[nH]c(=O)c3cc(C(=O)O)sc3c2c1 [Entry 220, 8-methyl-4-oxo-5H-thieno[3,2-c]quinoline-2-carboxylic acid]
